Test system: skin of human volunteers
Test: Human Repeat Insult Patch Test (HRIPT), skin irritation and sensitization
Format: in vivo
Details: positive control, study of Example 28, 51 subjects completing
Excerpt: Prior to utilizing in-vivo efficacy testing, however, it must first be determined that application of the product onto the skin of human volunteers will not cause them to experience an allergic reaction or some form of painful irritation. This is done by performing what is known as a Human Repeat Insult Patch Test (HRIPT). This is an internationally recognized test used to determine the potential for irritation, sensitization, and allergic reaction potential of a product. In view of the growing number of exotic ingredients used in skin care formulations, coupled with the increasingly complex and sophisticated chemical composition of the formulas, the risk of individuals experiencing irritation and allergic reactions because of their use has increased substantially. […] Any allergic reactions experienced by the test subject will be observed, recorded, and evaluated by a dermatologist to confirm, or not, the safety of the product. […]
Each HRIPT included about 50 subjects. In addition to demographic data collected for each subject, a Fitzpatrick Skin Type was also determined. […]
This procedure was repeated until a series of 9 consecutive, 24-hour exposures had been made 3 times a week for three 3 consecutive weeks. Prior to each reapplication, the test sites evaluated by trained laboratory personnel. […]

Structure (SMILES): CCCCCCCCCCCCOS(=O)(=O)[O-].[Na+] [2.0% Sodium Lauryl Sulfate Solution, Sodium Lauryl Sulfate]
- number of subjects with a Grade 1 reaction in HRIPT: 4 subjects
- number of subjects with a Grade 3 reaction in HRIPT: one

— patent US10721937B1, “Preservative systems and compositions and methods incorporating same” (CODEX BEAUTY CORPORATION, priority 2019, dated 2020)
